# Data taken from patent US9371364B2, “Dual-targeted therapeutic peptide for nasopharyngeal carcinoma, nanoparticles carrying same and uses thereof” (HUAZHONG UNIVERSITY OF SCIENCE AND TECHNOLOGY, priority 2012, dated 2016).
# Test system: nasopharyngeal carcinoma cells (5-8 F, SUNE-1, HONE-1) versus other cancer cells
# Assay: Octa-FNP fluorescent nano-probe screening of tumor cells (laser confocal imaging, FACS)
# Assay type: cell-based
# Settings: 3 h incubation, FIG. 1
# Experimental: In this example, a peptide octavalent fluorescent nanoprobe based on tetramer far-red fluorescent protein was prepared by using a method for constructing a peptide fluorescent probe having a multivalent effect and a nanosized effect invented in the previous research. The probe was used to detect and screen different types of tumor cell lines, in order to screen and identify the tumor-targeting property of the peptide, […] (SEQ ID NO: 3).
sequence,measurement,value
LTVSPWYLTVSPWY (a targeted therapeutic peptide for nasopharyngeal carcinoma),induction of tumor cell death,can effectively induce the death of tumor cells
same,tumor-targeting property of the peptide,excellent tumor-targeting property to nasopharyngeal carcinoma cells
